Laboratory results reported in PMC4255672 (2014).

System: BPA aptamer (DNA, aptamer) CCGCCGTTGGTGTGGTGGGCCTAGGGCCGGCGGCGCACAGCTGTTATAGACGTCTCCAGC
Assay: microscale thermophoresis
Conditions: 25 °C; 5 nM aptamer; BPA 310 pM to 10 μM; Hill1 fit; buffer not stated

Compound: CC(C)(c1ccc(O)cc1)c1ccc(O)cc1
- Kd: ~ 100 nM
